# Laboratory results from US20120059162A1, “FUSED IMIDAZOLE DERIVATIVE HAVING TTK INHIBITORY ACTION” (Oncotherapy Science, Inc., priority 2009, published 2012).
# Where two headings read alike, the source gives them in different places.
# Tests used:
# [1] = system: A549; assay: A549 assay: screening of cancer cell growth inhibiting compound; type: cell-based; details: Homo sapiens, A549 cells, read-out: A549 IC50
# How it was run: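 A549 cells (1×10^4/ml) in D-MEM with 10% FBS were pre-incubated one day at 37 °C, then exposed to compound dilutions for three further days. Viable cell number read by WST-8 (1–4 hours), absorbance 450 nm (reference 620 nm); inhibition calculated relative to untreated wells.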
# [2] = target: T1, TTK (Homo sapiens, UniProt P33981); assay: TTK assay: screening of TTK kinase activity suppressing action using p38 MAPK peptide; type: biochemical; details: read-out: TTK IC50
# T1 sequence (P33981 1-857): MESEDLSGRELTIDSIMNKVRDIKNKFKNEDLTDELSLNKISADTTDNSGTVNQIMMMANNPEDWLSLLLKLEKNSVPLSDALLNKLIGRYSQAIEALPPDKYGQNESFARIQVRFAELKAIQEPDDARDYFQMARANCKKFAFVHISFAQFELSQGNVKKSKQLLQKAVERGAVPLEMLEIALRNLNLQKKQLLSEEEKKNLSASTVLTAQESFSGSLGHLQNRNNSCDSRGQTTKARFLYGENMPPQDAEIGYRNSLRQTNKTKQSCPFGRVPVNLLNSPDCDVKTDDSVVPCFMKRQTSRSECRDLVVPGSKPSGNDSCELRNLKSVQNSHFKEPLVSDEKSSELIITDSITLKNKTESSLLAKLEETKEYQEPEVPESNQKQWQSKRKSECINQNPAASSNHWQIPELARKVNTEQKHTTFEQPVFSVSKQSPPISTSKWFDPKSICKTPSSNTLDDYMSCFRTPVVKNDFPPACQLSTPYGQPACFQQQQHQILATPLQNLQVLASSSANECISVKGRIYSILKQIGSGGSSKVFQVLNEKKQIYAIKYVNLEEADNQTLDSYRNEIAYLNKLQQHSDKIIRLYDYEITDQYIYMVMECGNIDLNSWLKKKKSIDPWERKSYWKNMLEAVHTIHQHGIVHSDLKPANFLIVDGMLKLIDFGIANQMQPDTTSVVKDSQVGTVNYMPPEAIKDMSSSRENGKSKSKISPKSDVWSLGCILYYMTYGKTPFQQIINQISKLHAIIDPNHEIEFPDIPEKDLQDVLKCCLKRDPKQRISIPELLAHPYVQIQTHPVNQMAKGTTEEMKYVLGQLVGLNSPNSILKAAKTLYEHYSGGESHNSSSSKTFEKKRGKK
# How it was run: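 TTK (4 μg/ml in enzyme solution) mixed with p38 MAPK peptide and ATP (each 60 μM in substrate solution) in Tris-HCl pH 7.5 with MgCl2, DTT, Na3VO4, β-glycerophosphate, BSA. Reaction aliquot captured on NeutrAvidin plate, detected with Eu-labelled anti-mouse IgG by time-resolved fluorescence; inhibition relative to no-compound signal.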
Structure (SMILES),"IC50 ([1]; 72 h, three days, WST-8) [nM]",IC50 ([2]; p38 MAPK peptide substrate) [nM],IC50 ([1]; values given as IC50 intervals) [nM],IC50 [2] [nM]
Cc1ccccc1Oc1cc(NCC2CCOCC2)c2ncc(-c3ccc(C(=O)NC4CC4)cc3)n2n1 [Example 2-101],50 to 500,2.5,,
O=C(NC1CC1)c1ccc(-c2cnc3c(NCC4CCOCC4)cc(NC4C5CC6CC(C5)CC4C6)nn23)cc1 (centres unmarked) [Example 2-73],50 to 500,3.5,,
O=C(NC1CC1)c1ccc(-c2cnc3c(NCC4CCOCC4)cc(Oc4cc(F)ccc4O)nn23)cc1 [Example 2-118],≤ 50,2.2,,
NC1CCCCC1Oc1cc(NCC2CCOCC2)c2ncc(-c3ccc(C(=O)NC4CC4)cc3)n2n1 (centres unmarked) [Example 2-189],,,500 to 1000,8.6
CC(C)CN(CC(F)(F)F)c1cc(NCC2CCOCC2)c2ncc(-c3ccc(C(=O)NC4CC4)cc3)n2n1 [Example 2-32],50 to 500,3.9,,
CC(Oc1cc(NCC2CCOCC2)c2ncc(-c3ccc(C(=O)NC4CC4)cc3)n2n1)c1ccccc1 (centres unmarked) [Example 2-174],,,50 to 500,14.1
N#CCCNc1nc(-c2ccc(C#N)cc2)cn2c(-c3ccc(C(=O)NC4CC4)cc3)cnc12 [Example 1-213],50 to 500,16.1,,
O=C(NC1CC1)c1ccc(-c2cnc3c(NCC4CCOCC4)cc(OC4CCCCCC4)nn23)cc1 [Example 2-181],,,50 to 500,10.2
C#CC(CC)(CC)Nc1cc(NCC2CCOCC2)c2ncc(-c3ccc(C(=O)NC4CC4)cc3)n2n1 [Example 2-76],500 to 1000,18.9,,
CC(C)(Oc1cc(NCC2CCOCC2)c2ncc(-c3ccc(C(=O)NC4CC4)cc3)n2n1)C(F)(F)F [Example 2-185],,,50 to 500,2.7
O=C(NC1CC1)c1ccc(-c2cnc3c(NCC4CCOCC4)cc(N4CCN(C(=O)C5CC5)CC4)nn23)cc1 [Example 2-47],50 to 500,3.1,,
O=C(NC1CC1)c1ccc(-c2cnc3c(NCC4CCOCC4)cc(NC4CCCC4)nn23)cc1Cl [Example 2-230],,,≤ 50,4.3
COC(C)CNc1cc(NC2CCCCC2)nn2c(-c3ccc(C(=O)NC4CC4)cc3)cnc12 (centres unmarked) [Example 2-166],50 to 500,4.5,,
Nc1ccc(Oc2cc(NCC3CCOCC3)c3ncc(-c4ccc(C(=O)NC5CC5)cc4)n3n2)cc1 [Example 2-92],50 to 500,4,,
O=C(NC1CC1)c1ccc(-c2cnc3c(NCC4CCOCC4)cc(N[C@H]4CC[C@H](O)CC4)nn23)cc1 [Example 2-43],500 to 1000,12.5,,
COCCCCNc1cc(NC2CCCCC2)nn2c(-c3ccc(C(=O)NC4CC4)cc3)cnc12 [Example 2-138],50 to 500,5.5,,
